# Test results published in patent publication US20190030126A1, “Inhibitors of the Interaction BCL-2 L10 / IP3 Receptors” (Universite Claude Bernard - Lyon 1, priority 2016, published 2019).
# Tests used:
# [1] = test system: MDA-MB-231 cancer cells; assay: MDA-MB-231 tumour growth in the mammary fat pad of SCID mice; format: in vivo; conditions: 10 mg/kg, peritumoral injection, once every three days, monotherapy, versus vehicle (PBS); P<0.01
# Method: (A) MDA-MB-231 cells have been injected into the mammary fat pad of SCID mice. When the tumors reached a mean volume of about 90 mm^3, mice were treated with dTAT 1-23 C20A peptide at 10 mg/kg, peritumoral injection, once every three days, or vehicle alone (PBS) with the same injection periodicity.
# SCID Mice have been used as tumor model for testing the effects of administration of the peptides according to the invention
# MDA-MB-231 cancer cells have been injected into the mammary fat pad of SCID mice.
# [2] = molecular target: T1, Nrh/IP3R1 complex (Flag-Nrh / HA-hBD IP3R1) (Homo sapiens, UniProt Q9HD36); assay: Co-immunoprecipitation of Flag-Nrh and HA-hBD IP3R1 in HeLa cells pre-incubated with dTAT peptides; format: cell-based; conditions: 10 μM peptide, pre-incubated 1 h at 37° C., no external agent
# T1 construct: expressed in transfected cells; host or cells: HeLa
# T1 sequence (Q9HD36 11-204): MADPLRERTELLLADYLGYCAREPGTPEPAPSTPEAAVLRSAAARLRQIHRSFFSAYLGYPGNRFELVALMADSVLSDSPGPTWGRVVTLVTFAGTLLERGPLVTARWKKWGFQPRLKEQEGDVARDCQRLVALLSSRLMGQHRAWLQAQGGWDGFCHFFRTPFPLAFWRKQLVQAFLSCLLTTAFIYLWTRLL
# Method: (B) The interaction between Flag-Nrh and HA-hBD IP3R1 was assessed by co-immunoprecipitation in HeLa cells transfected with a plasmid coding for Flag-Nrh or HA-hBD IP3R1, pre-incubated with 10 μM control peptide (dTAT 1-23 C20A Y16F) or 10 μM peptide (dTAT 1-23 C20A). In this experiment, dTAT-Nrh 1-23 C20A but not dTAT 1-23 C20A Y16F disrupts the Nrh/IP3R1 complex.
# The interaction between Flag-Nrh (Bcl-2 L10) and HA-hBD IP3R1 was assessed by co-immunoprecipitation in HeLa cells transfected with a plasmid coding for Flag-Nrh or HA-hBD IP3R1, pre-incubated for 1 h at 37° C. in Ca^2+-free Balanced Salt Solution (121 mM NaCl, 5.4 mM KCl, 0.8 mM MgCl2, 6 mM NaHCO3, 5.5 mM D-glucose, 25 mM HEPES, pH 7.3) with vehicle (peptide solvant [H2O-TFA 0.1%]), and: • 10 μM of control peptide (dTAT 1-23 Y16F C20A) or • 10 μM of wild-type peptide (dTAT 1-23 C20A).
# Cells were washed twice and incubated for another 1 h at 37° C. before harvest.
sequence,measurement,setting,value
CKRKKRRQRRRGGSGGADPLRERTELLLADYLGYAARE [dTAT 1-23 C20A],effect on tumoral growth (tumor volume),[1],significant effect
same,disruption of the Nrh/IP3R1 complex (co-immunoprecipitation),[2],disrupt the Nrh/IP3R1 complex
